Laboratory results published in patent US20230219962A1, “PYRAZOLO[4,3-d]PYRIMIDINE DERIVATIVES AND METHODS OF USE THEREOF FOR THE TREATMENT OF CELLULAR PROLIFERATIVE DISORDERS” (Merck Sharp & Dohme LLC, priority 2020, published 2023).

Legend:
[1] = target: T1, hTLR7 (Homo sapiens, UniProt Q9NYK1); assay: Human TLR7 Reporter Assay; assay type: cell-based; conditions: HEK-Blue hTLR7 cells, 16 hours, normalized to CL097 (6 μM) and DMSO
T1 construct: host or cells: HEK-Blue hTLR7 cells (HEK293-derived, own knowledge)
T1 sequence (Q9NYK1 27-1049): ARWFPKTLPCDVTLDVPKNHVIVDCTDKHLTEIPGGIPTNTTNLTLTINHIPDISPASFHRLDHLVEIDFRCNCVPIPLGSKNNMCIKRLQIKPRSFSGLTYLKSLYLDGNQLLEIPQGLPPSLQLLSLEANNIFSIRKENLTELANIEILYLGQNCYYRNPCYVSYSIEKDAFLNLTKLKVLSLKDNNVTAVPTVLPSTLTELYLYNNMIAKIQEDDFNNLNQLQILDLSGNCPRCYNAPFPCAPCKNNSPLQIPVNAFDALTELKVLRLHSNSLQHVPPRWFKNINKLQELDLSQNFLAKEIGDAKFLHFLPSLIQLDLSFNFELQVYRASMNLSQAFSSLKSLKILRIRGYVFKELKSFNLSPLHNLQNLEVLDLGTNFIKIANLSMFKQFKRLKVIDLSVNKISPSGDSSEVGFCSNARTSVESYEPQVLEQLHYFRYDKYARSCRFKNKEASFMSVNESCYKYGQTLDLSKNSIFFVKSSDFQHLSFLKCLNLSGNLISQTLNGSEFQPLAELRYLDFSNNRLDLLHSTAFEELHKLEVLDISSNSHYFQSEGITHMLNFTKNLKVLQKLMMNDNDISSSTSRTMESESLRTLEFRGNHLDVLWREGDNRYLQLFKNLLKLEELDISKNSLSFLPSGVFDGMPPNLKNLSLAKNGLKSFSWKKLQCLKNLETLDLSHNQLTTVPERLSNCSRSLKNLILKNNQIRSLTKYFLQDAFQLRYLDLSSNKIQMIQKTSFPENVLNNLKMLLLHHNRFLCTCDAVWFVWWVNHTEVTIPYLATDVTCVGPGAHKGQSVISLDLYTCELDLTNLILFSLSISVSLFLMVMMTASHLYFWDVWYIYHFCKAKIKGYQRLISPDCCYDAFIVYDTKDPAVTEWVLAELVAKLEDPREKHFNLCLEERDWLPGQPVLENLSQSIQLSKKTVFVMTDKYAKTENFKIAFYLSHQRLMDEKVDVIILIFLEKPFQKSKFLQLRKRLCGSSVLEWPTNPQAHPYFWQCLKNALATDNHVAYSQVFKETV
Procedure, shortened: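 HEK-Blue hTLR7 reporter cells (20,000/well) incubated 16 h at 37 °C with 10-point 3-fold compound dilutions; SEAP read by absorbance at 620 nm. Effects normalized between CL097 (6 μM) and DMSO controls; EC50 from 4-parameter fit.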

[2] = target: T2, hTLR8 (Homo sapiens, UniProt Q9NR97); assay: Human TLR8 Reporter Assay; assay type: cell-based; conditions: HEK-Blue hTLR8 cells, 16 hours, normalized to tl8-506 (1 μM) and DMSO
T2 construct: host or cells: HEK-Blue hTLR8 cells (HEK293-derived, own knowledge)
T2 sequence (Q9NR97 27-1041): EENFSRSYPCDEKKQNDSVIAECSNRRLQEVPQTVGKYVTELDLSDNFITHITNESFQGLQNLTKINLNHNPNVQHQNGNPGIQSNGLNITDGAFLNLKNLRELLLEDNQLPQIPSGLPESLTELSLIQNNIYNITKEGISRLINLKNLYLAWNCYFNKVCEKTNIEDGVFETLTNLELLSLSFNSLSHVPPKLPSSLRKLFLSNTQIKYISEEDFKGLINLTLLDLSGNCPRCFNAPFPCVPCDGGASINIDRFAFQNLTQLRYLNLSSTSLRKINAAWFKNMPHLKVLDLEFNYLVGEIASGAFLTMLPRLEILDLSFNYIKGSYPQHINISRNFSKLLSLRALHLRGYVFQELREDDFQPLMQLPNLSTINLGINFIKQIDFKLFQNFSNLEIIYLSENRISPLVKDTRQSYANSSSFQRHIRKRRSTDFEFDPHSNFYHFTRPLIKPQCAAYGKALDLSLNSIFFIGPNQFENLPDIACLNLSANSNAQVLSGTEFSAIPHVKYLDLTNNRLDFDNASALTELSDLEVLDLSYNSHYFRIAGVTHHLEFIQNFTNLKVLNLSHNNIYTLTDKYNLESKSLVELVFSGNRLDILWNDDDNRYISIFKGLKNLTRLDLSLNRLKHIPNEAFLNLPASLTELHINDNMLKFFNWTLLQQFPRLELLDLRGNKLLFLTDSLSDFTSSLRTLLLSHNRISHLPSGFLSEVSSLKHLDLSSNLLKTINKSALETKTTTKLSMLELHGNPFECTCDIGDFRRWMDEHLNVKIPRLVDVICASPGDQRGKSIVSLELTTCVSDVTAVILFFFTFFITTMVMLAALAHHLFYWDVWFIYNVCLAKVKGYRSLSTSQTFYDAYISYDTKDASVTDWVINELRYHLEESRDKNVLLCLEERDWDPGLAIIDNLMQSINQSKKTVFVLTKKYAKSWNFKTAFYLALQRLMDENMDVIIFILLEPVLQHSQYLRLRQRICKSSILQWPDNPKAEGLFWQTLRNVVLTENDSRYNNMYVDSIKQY
Procedure, shortened: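 HEK-Blue hTLR8 cells (20,000/well) incubated 16 h at 37 °C with 10-point 3-fold compound dilutions in HEK-Blue Detection medium; reporter read as absorbance at 620 nm. Effects normalized between DMSO and tl8-506 (1 μM); EC50 from 4-parameter fit.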

| SMILES | EC50 [1] [nM] | EC50 [2] [nM] |
| --- | --- | --- |
| CCCCNc1nc(N)nc2cn(Cc3ccc(C4CCCN4)cc3)nc12 (centres unmarked) [Compound 204] | 508 | 533 |
| CCCCNc1nc(N)nc2cn(Cc3c(OC)cc(C(C)N)cc3OC)nc12 (centres unmarked) [Compound 215] | 474 | 224 |
| CCCCNc1nc(N)nc2cn(Cc3ncc(CN4CCNCC4)cc3OC)nc12 [Compound 94] | 2040 | 4960 |
| CCCCNc1nc(N)nc2cn(Cc3c(OC)cc(CN4CCNCC4)cc3OC)nc12 [Compound 62] | 840 | 1490 |
| CCCCNc1nc(N)nc2cn(Cc3c(OC)cc(C(C)N)cc3OC)nc12 (centres unmarked) [Compound 214] | 525 | 235 |
| CCCCNc1nc(N)nc2cn(Cc3c(OC)ccc(CN)c3OC)nc12 [Compound 76] | 3040 | 719 |
| COc1cccc(OC)c1Cn1cc2nc(N)nc(NCC(C)C)c2n1 [Compound 50] | 843 | > 29900 |
| CCC[C@@H](CO)Nc1nc(N)nc2cn(Cc3c(OC)cc(C(C)N)cc3OC)nc12 (some centres unmarked) [Compound 222] | 6280 | 1070 |
| CCCCNc1nc(N)nc2cn(Cc3ccc(C4CNCCN4)cc3OC)nc12 (centres unmarked) [Compound 234] | 1490 | 9820 |
| CCC[C@@H](CO)Nc1nc(N)nc2cn(Cc3c(OC)cc(C(CN)N(C)CCC)cc3OC)nc12 (some centres unmarked) [Compound 223] | 4840 | 1800 |
| CCCCNc1nc(N)nc2cn(Cc3c(OC)cc(NCCN)cc3OC)nc12 [Compound 114] | 529 | 4490 |
| CNc1nc(N)nc2cn(Cc3c(OC)cccc3OC)nc12 [Compound 43] | 1370 | > 9980 |
| CCCCNc1nc(N)nc2cn(Cc3ccc(N4CCN(C(=O)[C@H]5CC[C@H](CN)CC5)CC4)cc3OC)nc12 [Compound 115] | 329 | 5590 |
| CCCC(Nc1nc(N)nc2cn(Cc3c(OC)cccc3OC)nc12)C(F)F (centres unmarked) [Compound 135] | 343 | > 9980 |
| CCCCNc1nc(N)nc2cn(Cc3c(OC)cccc3OCCCCC(=O)OC)nc12 [Compound 207] | 806 | 2340 |
| CCC[C@@H](CO)Nc1nc(N)nc2cn(Cc3c(OC)cc(C(C)N)cc3OC)nc12 (some centres unmarked) [Compound 224] | 3650 | 2250 |
| CCCCNc1nc(N)nc2cn(Cc3nnc(C)o3)nc12 [Compound 172] | 2790 | 3990 |
| CCCCNc1nc(N)nc2cn(Cc3cncn3C)nc12 [Compound 180] | 1140 | 6370 |
| CCCCNc1nc(N)nc2cn(Cc3c(OC)cc(CNC(=O)C4CCC(CN5C(=O)CC(SC[C@H](N)C(=O)O)C5=O)CC4)cc3OC)nc12 (some centres unmarked) [Compound 92] | 2260 | 11600 |
| COc1cccc(OC)c1Cn1cc2nc(N)nc(NCC(C)O)c2n1 (centres unmarked) [Compound 49] | 7290 | > 29900 |
| CCCCNc1nc(N)nc2cn(Cc3c(OC)cc(CN4CCN(C(=O)C5CCC(CN6C(=O)C=CC6=O)CC5)CC4)cc3OC)nc12 (centres unmarked) [Compound 74] | 3330 | > 29900 |
| COc1ccccc1Cn1cc2nc(N)nc(N3CCC(CO)C3)c2n1 (centres unmarked) [Compound 24] | 2450 | > 29900 |
| CCCCNc1nc(N)nc2cn(Cc3ccc(CC(C)N)cc3OC)nc12 (centres unmarked) [Compound 176] | 329 | 467 |
| CCCCNc1nc(N)nc2cn(Cc3ccc(C4CCNC4=O)cc3)nc12 (centres unmarked) [Compound 202] | 354 | 3470 |
| CCCCNc1nc(N)nc2cn(Cc3ccc(CN4CC(N)C4)cc3OC)nc12 [Compound 191] | 541 | 860 |

Compounds with a lower EC50 [1], results first:

| EC50 [1] [nM] | EC50 [2] [nM] | SMILES |
| --- | --- | --- |
| 241 | 2870 | CCCCNc1nc(N)nc2cn(Cc3ccc(C4CCCN4)cc3OC)nc12 (centres unmarked) [Compound 236] |
| 118 | 170 | CCCCNc1nc(N)nc2cn(Cc3ccc(C(C)N(C)C)cc3OC)nc12 (centres unmarked) [Compound 220] |
| 51.7 | 91.7 | CCCCNc1nc(N)nc2cn(Cc3ccc(C(C)NCCC)cc3OC)nc12 (centres unmarked) [Compound 217] |
| 55.9 | 370 | C=CCN(C)Cc1cnc(Cn2cc3nc(N)nc(NCCCC)c3n2)c(OC)c1 [Compound 157] |
| 125 | 813 | CCCCNc1nc(N)nc2cn(Cc3c(OCC)cccc3OCC)nc12 [Compound 40] |
| 108 | 39.9 | CCC[C@@H](CO)Nc1nc(N)nc2cn(Cc3c(OC)cc(CN(C)C)cc3OC)nc12 [Compound 199] |
| 185 | 122 | CCC[C@@H](CO)Nc1nc(N)nc2cn(Cc3c(OC)cc(CN)cc3OC)nc12 [Compound 152] |
| 106 | 119 | CCCCNc1nc(N)nc2cn(Cc3ccc(C(C)NCCC)cc3OC)nc12 (centres unmarked) [Compound 216] |
| 36 | 725 | CCCCNc1nc(N)nc2cn(Cc3ccc(C(C)N(C)CCC)cc3OC)nc12 (centres unmarked) [Compound 241] |
| 200 | 161 | CCCCNc1nc(N)nc2cn(Cc3c(OC)cc(C(C)NC)cc3OC)nc12 (centres unmarked) [Compound 209] |
| 190 | 278 | CCCCNc1nc(N)nc2cn(Cc3ccc(CN(C)C)o3)nc12 [Compound 186] |
| 112 | 1110 | CCCCNc1nc(N)nc2cn(Cc3sc(C)nc3C)nc12 [Compound 175] |
| 50.9 | 546 | CCCCNc1nc(N)nc2cn(Cc3ncccc3OC)nc12 [Compound 8] |
| 213 | 3020 | CCC[C@H](CO)Nc1nc(N)nc2cn(Cc3c(OC)cccc3OC)nc12 [Compound 107] |
| 20 | 63.3 | C=CCN(C)Cc1cc(OC)c(Cn2cc3nc(N)nc(N[C@H](C)CCC)c3n2)c(OC)c1 [Compound 187] |
| 68.6 | 710 | CCCCNc1nc(N)nc2cn(Cc3c(F)cccc3F)nc12 [Compound 41] |
| 171 | 1500 | CCCCNc1nc(N)nc2cn(Cc3scnc3C)nc12 [Compound 181] |
| 139 | 137 | CCCCNc1nc(N)nc2cn(Cc3ccc(C(C)NC)cc3OC)nc12 (centres unmarked) [Compound 194] |
| 239 | 748 | CCCCNc1nc(N)nc2cn(Cc3c(C)cccc3OC)nc12 [Compound 39] |
| 293 | 1360 | CCCCNc1nc(N)nc2cn(Cc3ncc(NCCCN)cc3OC)nc12 [Compound 129] |
| 243 | 1490 | CCCCNc1nc(N)nc2cn(Cc3ccc(CN4CCN(C(=O)C5CCC(CN6C(=O)C=CC6=O)CC5)CC4)cc3OC)nc12 (centres unmarked) [Compound 69] |
